One data set has as its system HepG2. The data set is described as follows: Antiproliferative activity against human HepG2 cells. In kind it is functional, cell-based.
Another data set deals with A549. The data set is described as follows: Antiproliferative activity against human A549 cells. The format is functional, cell-based.
For the next data set, the system named is KB. The data set is described as follows: Antiproliferative activity against human KB cells. The format is functional, cell-based.
A short description of data set [1]: Cytotoxicity against human HEK293 cells. The format is toxicity, cell-based.
Data set [2] can be described thus: Selectivity ratio of IC50 for human HEK293 cells to IC50 for human HepG2 cells. The conditions noted are these: HEK293 cells versus HepG2 cells, read-out: Ratio IC50. The format is toxicity.
Data set [3] is described as follows: Selectivity ratio of IC50 for human HEK293 cells to IC50 for human KB cells. In kind it is toxicity. To be noted: HEK293 cells versus KB cells, read-out: Ratio IC50.
Data set [4] in a line: Selectivity ratio of IC50 for human HEK293 cells to IC50 for human A549 cells. In kind it is toxicity. The conditions noted are these: HEK293 cells versus A549 cells, read-out: Ratio IC50.

On to `C[C@@H]1CC[C@H]2[C@@H](C)C(=O)N(Cc3cn(-c4ccc(Br)cc4)nn3)[C@@H]3O[C@@]4(C)CC[C@@H]1[C@@]23OO4`, for which the results for the IC50 in the data set on HepG2, in the data set with A549 and in the data set on KB were 34.9 µM, 45.9 µM and 26.4 µM, respectively.
On to `C[C@@H]1CC[C@H]2[C@@H](C)C(=O)N(Cc3cn(-c4ccc(I)cc4)nn3)[C@@H]3O[C@@]4(C)CC[C@@H]1[C@@]23OO4`, for which the half-maximal inhibitory concentration (IC50) in data set [1] came out at 12.4 µM; in the data set on HepG2 it was 31.3 µM; with A549 it was 9.2 µM; in the data set with KB it was 10.3 µM.
Consider `C[C@@H]1CC[C@H]2[C@@H](C)C(=O)N(Cc3cn(-c4ccccc4Br)nn3)[C@@H]3O[C@@]4(C)CC[C@@H]1[C@@]23OO4`, for which the values for the IC50 in the data set on HepG2, with A549 and in the data set with KB were 42.5 µM, 32.9 µM and 32.3 µM, respectively.
`C[C@@H]1CC[C@H]2[C@@H](C)C(=O)N(Cc3cn(-c4cccc(I)c4)nn3)[C@@H]3O[C@@]4(C)CC[C@@H]1[C@@]23OO4`: the half-inhibitory concentration (IC50) in data set [1] stood at 46.3 µM; in the data set on HepG2, 9.4 µM; with A549, 135 µM; with KB, 10.6 µM. Also, the selectivity ratio is 5 in data set [2] and 4 in data set [3].
In the case of `C[C@@H]1CC[C@H]2[C@@H](C)C(=O)N(Cc3cn(-c4cccc(Cl)c4)nn3)[C@@H]3O[C@@]4(C)CC[C@@H]1[C@@]23OO4`, the results for the IC50 in the data set on HepG2, in the data set on A549 and in the data set on KB were 215 µM, 151 µM and 235 µM, respectively.
Taken in the same sequence, the figures for `C[C@@H]1CC[C@H]2[C@@H](C)C(=O)N(Cc3cn(-c4ccccc4I)nn3)[C@@H]3O[C@@]4(C)CC[C@@H]1[C@@]23OO4` were 49.3 µM, 27.7 µM and 34.1 µM.
On to `Cc1c2ccncc2c(C)c2c1[nH]c1ccccc12` [ELLIPTECINE], for which the IC50 is 6.3 µM in data set [1], 1.7 µM with HepG2, 1.7 µM in the data set with A549 and 1.7 µM in the data set with KB.
With `C[C@@H]1CC[C@H]2[C@@H](C)C(=O)N(Cc3cn(-c4cccc(Br)c4)nn3)[C@@H]3O[C@@]4(C)CC[C@@H]1[C@@]23OO4`, the concentration for half-maximal inhibition (IC50) was > 247 µM in data set [1], 42.5 µM with HepG2, 15.5 µM in the data set on A549 and 7.7 µM in the data set on KB. Also, the selectivity ratio in data set [2] turned out to be 6; in data set [3] it was 32; in data set [4], 16.
For `C[C@@H]1CC[C@H]2[C@@H](C)C(=O)N(Cc3cn(-c4cccc(F)c4)nn3)[C@@H]3O[C@@]4(C)CC[C@@H]1[C@@]23OO4`, the half-inhibitory concentration (IC50) with HepG2, with A549 and in the data set with KB was > 280 µM in each case.

The record behind these values is ChEMBL document CHEMBL6083221, “11-Azaartemisinin derivatives bearing halogenated aromatic moieties: Potent anticancer agents with high tumor selectivity” (Bioorg Med Chem Lett, 2024).
